Assay results from patent publication US20230111910A1, “PD-1/PD-L1 INHIBITOR, PREPARATION METHOD THEREFOR, AND USE THEREOF” (SHANGHAI SYNERGY PHARMACEUTICAL SCIENCES CO., LTD., priority 2020, published 2023).
Structures can show the parent of a compound that is named as a salt. Where two headings read alike, the source gives them in different places.

Experiments:
[1] = tested on: mouse colon cancer MC38-hPD-L1; experiment: In vivo efficacy in mice, MC38-hPD-L1 subcutaneous tumor model; conditions: 50 mg/kg i.g., twice a day, MC38-hPD-L1 in C57BL/6 mice
Text: Under sterile conditions, mouse colon cancer MC38-hPD-L1 in logarithmic growth phase was digested into single cells and then transplanted into the right back of C57BL/6 mice subcutaneously. Each mouse was inoculated with 1×10^6 cells in a volume of […] (μL). After inoculation, when the tumor grows to 100 cubic millimeters (mm^3), the mice were randomly divided into 9 groups, with 8 mice in each group, for drug efficacy experiments. The positive control was human programmed death receptor ligand (PD-L1) antibody. The negative control group was given the same amount of vehicle.
C57BL/6 mice, SPF grade, 6-8 weeks old, female, purchased from Beijing Vital River Laboratory Animal Technology Co., Ltd., license number SCXK […] 2017-0011, animal certificate number: 20170011003865.
An appropriate amount of compound was weighted, dissolved in 5% dimethyl sulfoxide (DMSO), subjected to vortex and sonication, added with 0.5% sodium carboxymethyl cellulose (CMC-Na), and sonicated, to prepare a solution of 5 mg per milliliter (mg/mL).

[2] = Acute toxicity test in mice, single dose, 14 days observation; assay type: in vivo; conditions: both sexes, mouse, in vivo; ICR mice, single administration; read-out: median lethal dose (LD50)
Description: (§1) This experiment aims to test the toxic effects of the compounds in mice.
(§2) ICR mice, SPF grade, 6-8 weeks old, half male and half […], purchased from Sippe-Bk Lab Animal Co., Ltd., Shanghai, license number SCXK (Shanghai) 2018-0006, animal certificate number: 20180006010983.
(§3) ICR mice were administered different doses of compounds at a single time, and were continuously observed for 14 days. The animal death, poisoning reaction, body weight change, diet, appearance, behavior, etc. were recorded. At the end point, the animals were dissected, and the organs were taken for histopathological examination.

ICR mice = experiment: as above; assay type: in vivo; conditions: within 14 days from administration
Description: as §1, §2, §3

[3] = Pharmacokinetic experiment in rats, LC/MS/MS; assay type: in vivo; conditions: SD rats; for AUC: read-out: Area under the curve (AUC, ng/mL.h)
Description: Taking SD rats as an example, the drug concentrations in the plasma of rats at different times after i.g. and i.v. administration of compounds of Examples 1, 5, 6, 8, 12, 13, 15, 18, 19, 22, 25, 27 and 29, respectively, were determined by the liquid chromatography-tandem mass spectrometry (LS/MS/MS) method, and the relevant pharmacokinetic parameters were calculated to evaluate the pharmacokinetic properties of example compounds of the present invention in rats.
Healthy adult SD rats, SPF grade, male, purchased from Sippe-Bk Lab Animal Co., Ltd., Shanghai, license number SCXK (Shanghai) 2018-0006, animal certificate number: 20180006006321.
A certain amount of compound was weighed, dissolved in 5% dimethyl sulfoxide (DMSO), subjected to vortex and sonication, added with 0.5% sodium carboxymethyl cellulose (CMC-Na), and sonicated, to prepare a homogeneous solution.
Before administration and 5 min, 15 min, 0.5 h, 1 h, 2 h, 4 h, 6 h, 8 h and 24 h after administration, orbital blood was collected, 0.2 milliliters (mL) of blood being collected each time, and placed in an anticoagulant tube, mixed well, and stored in a −20° C. refrigerator for later use.
The content of the compound in rat whole blood was determined by liquid chromatography-tandem mass spectrometry (LS/MS/MS).
The pharmacokinetic parameters of the compounds after administration were calculated using the non-compartmental model of WinNonLin5.3 software.

| Structure (SMILES) | Tumor growth inhibition rate [1] | LD50 at 14 days [2] | body weight and behavior compared with control group (ICR mice) | further results |
| --- | --- | --- | --- | --- |
| Cc1c(NC(=O)c2nc3c(s2)CN(C)CC3)cccc1-c1cccc(-c2nc3cc(CN4CC[C@@H](C(=O)O)C4)cnc3o2)c1C [Example 4, (R)-1-(((2-(2,2′-dimethyl-3′-(5-methyl-4,5,6,7-tetrahydrothiazolo[5,4-c]pyridine-2-carboxamido))-[1,1′-biphenyl]-3-yl)oxazolo[5,4-b]pyridin-6-yl)methyl)pyrrolidine-3-carboxylic acid] | 82% | > 1000 mg/kg | no abnormal body weight or behavior | – |
| Cc1c(NC(=O)c2nc3c(n2C)CCN(C[C@H](C)O)C3)cncc1-c1cccc(-c2nc3cc(CN4CC[C@@H](C(=O)O)C4)cc(Cl)c3o2)c1C [Example 30, (R)-1-(((7-chloro-2-(3-(5-(5-((S)-2-hydroxypropyl))-1-methyl-4,5,6,7-tetrahydro-1H-imidazo[4,5-c]pyridine-2-carboxamido)-4-methylpyridin-3-yl)-2-methylphenyl)benzo[d]oxazole-5-yl)methyl)pyrrolidine-3-carboxylic acid] | 79% | > 1000 mg/kg | no abnormal body weight or behavior | – |
| Cc1c(NC(=O)c2nc3c(n2C)CCN(CC(C)O)C3)cccc1-c1nccc(NC(=O)c2nc3c(n2C)CCN(C)C3)c1Cl (stereo not shown) [Example 15] | 86% | – | – | Area under the curve (AUC, ng/mL.h) ([3]; i.v., 2 mg/kg): 599.36 ng·h/mL; Half life (T1/2, h) ([3]; i.v., 2 mg/kg): 1.76 h; Bioavailability (F%) ([3]; p.o. 10 mg/kg vs i.v. 2 mg/kg): 58%; Area under the curve (AUC, ng/mL.h) ([3]; p.o. (i.g.), 10 mg/kg): 1618.28 ng·h/mL; Blood concentration (Cmax, ng/mL) ([3]; p.o. (i.g.), 10 mg/kg): 377.6 ng/mL |
| Cc1c(Nc2nccc3cc(CN4CC[C@@H](O)C4)cnc23)cccc1-c1cncc(-c2nc3cc(CN4CC[C@@H](C(=O)O)C4)cc(Cl)c3o2)c1C [Example 11, (R)-1-(((7-chloro-2-(5-(3-((3-((((R)-3-hydroxypyrrolidin-1-yl)methyl)-1,7-naphthyridin-8-yl)amino)-2-methylphenyl)-4-methylpyridin-3-yl)benzo[d]oxazol-5-yl)methyl)pyrrolidine-3-carboxylic acid trifluoroacetate] | 85% | > 1000 mg/kg | no abnormal body weight or behavior | – |
| Cc1c(NC(=O)c2nc3c(n2C)CCN(C[C@H](C)O)C3)cncc1-c1cccc(NC(=O)c2nc3c(n2C)CCN(C2COC2)C3)c1Cl [Example 23, (S)—N-(5-(2-chloro-3-(1-methyl-5-(oxetan-3-yl)-4,5,6,7-tetrahydro-1H-imidazo[4,5-c]pyridine-2-carboxamido)phenyl)-4-methylpyridin-3-yl)-5-(2-hydroxypropyl)-1-methyl-4,5,6,7-tetrahydro-1H-imidazo[4,5-c]pyridine-2-carboxamide] | 81% | – | – | – |
| CCN1CCc2c(nc(C(=O)Nc3cncc(-c4cccc(NC(=O)c5nc6c(n5C)CCN(CC)C6)c4Cl)c3C)n2C)C1 [Example 27, N-(2-chloro-3-(5-(5-ethyl-1-methyl-4,5,6,7-tetrahydro-1H-imidazo[4,5-c]pyridine-2-carboxamido)-4-methylpyridin-3-yl)phenyl)-5-ethyl-1-methyl-4,5,6,7-tetrahydro-1H-imidazo[4,5-c]pyridine-2-carboxamide] | 80% | – | – | AUC ([3]; male, rat, whole blood, iv, i.v., 2 mg/kg): 637 ng·h/mL; half-life ([3]; male, rat, whole blood, iv, i.v., 2 mg/kg, read-out: Half life (T1/2, h) (converted)): 2.26 h; bioavailability ([3]; male, rat, whole blood, po, p.o. 10 mg/kg vs i.v. 2 mg/kg, read-out: Bioavailability (F%)): 46%; AUC ([3]; male, rat, whole blood, po, p.o. (i.g.), 10 mg/kg): 1460 ng·h/mL; Cmax ([3]; male, rat, whole blood, po, p.o. (i.g.), 10 mg/kg, read-out: Blood concentration (Cmax, ng/mL)): 423 ng/mL |
| Cc1c(NC(=O)c2nc3c(s2)CN(C)CC3)cccc1-c1cncc(-c2nc3cc(CN4CC[C@@H](C(=O)O)C4)cc(Cl)c3o2)c1C [Example 9] | 78% | > 1000 mg/kg | no abnormal body weight or behavior | – |
